Results taken from publication PMC9228535, “Antistaphylococcal Activities and ADME-Related Properties of Chlorinated Arylcarbamoylnaphthalenylcarbamates” (Pharmaceuticals, 2022).
≈ marks a conversion by molar mass, not a printed value.

How the values were obtained:
[1] = system: THP-1 cells; test: In vitro cytotoxicity assay (WST-1); assay type: cell-based; details: Homo sapiens, THP-1, 24 h
Procedure: Preliminary in vitro cytotoxicity screening of the investigated compounds was performed using human monocytic leukemia THP-1 cells, see Table 2. The ability to inhibit the human cancer cell viability (IC50) of the compounds was compared to camptothecin toxicity (0.16 ± 0.07 μM). […] However, these values are up to two orders of magnitude higher than their significant antistaphyloccocal concentrations. This fact is also taken into account in the calculated selectivity index (SI), Table 2, where for only three compounds the SI is <20, while for the rest of the agents SI is >20, and for some derivatives even 100 and more. Thus, based on all these observations, it can be concluded that all the tested derivatives can be considered as in vitro non-toxic compounds for the subsequent design of new therapeutic agents.
The human THP-1 cell line (European Collection of Cell Cultures, Salisbury, UK) was cultured in RPMI 1640 medium supplemented with 10% fetal bovine serum, 2% L-glutamine, 1% penicillin, and streptomycin at 37 °C with 5% CO2. Cells were passaged at approximately 1-week intervals. All the tested compounds were prepared and dissolved as mentioned in our previous work.

[2] = system: MRSA SA 3202; test: MIC, microtitration broth method; assay type: cell-based; details: Staphylococcus aureus, 24 h
Procedure: (§1) All the investigated compounds were screened for in vitro antibacterial activity against the reference and quality control strain Staphylococcus aureus ATCC 29213 and clinical isolates of methicillin-resistant S. aureus (MRSA) 63718, SA 630, and SA 3202 [14]. Activities are expressed as the minimum inhibitory concentrations (MICs), see Table 2. In addition to the MICs, the minimum bactericidal concentrations (MBCs) were also determined.
(§2) In vitro antibacterial activity of the synthesized compounds was evaluated against representatives of multidrug-resistant bacteria, three clinical isolates of methicillin-resistant S. aureus: clinical isolate of animal origin, MRSA 63718 (Department of Infectious Diseases and Microbiology, Faculty of Veterinary Medicine, University of Veterinary Sciences Brno, Czech Republic), carrying the mecA gene; and MRSA SA 630 [46] and MRSA SA 3202 [46] (National Institute of Public Health, Prague, Czech Republic), both of human origin. Suspected colonies were confirmed by PCR; a 108bp fragment specific for S. aureus was detected. All isolates were tested for the presence of the mecA gene encoding methicillin resistance. […] Vancomycin-susceptible methicillin-susceptible S. aureus (VS-MSSA) ATCC 29213, obtained from the American Type Culture Collection, was used as the reference and quality control strain. Enterococcus faecalis ATCC 29212 was obtained from the American Type Culture Collection and used as the reference and quality control strain.
(§3) The minimum inhibitory concentrations (MICs) were evaluated by the microtitration broth method according to the CLSI [64, 65] with some modifications. The compounds were dissolved in DMSO (Sigma, St. Louis, MO, USA) to get a concentration […] and diluted in a microtitration plate in an appropriate medium, namely, Cation Adjusted Mueller–Hinton (CaMH, Oxoid, Basingstoke, UK) for staphylococci (S. aureus ATCC 29213, clinical isolates of MRSA 63718, SA 630, and SA 3202) and brain heart infusion (BHI, Oxoid) for E. faecalis ATCC 29212, to reach the final concentration of 256-0.125 µg/mL. The plate was inoculated by the tested microorganisms. The final concentration of bacterial cells was 10^5 for bacteria. Ampicillin (Sigma) was used as reference drugs. A drug-free control and a sterility control were included. The plates were incubated for 24 h at 37 °C for staphylococci and E. faecalis ATCC 29212 (stability evaluation of the carbamates, see Supplementary materials, Table S1). […] The experiments were repeated three times.

[3] = system: MRSA 63718; test: MIC, microtitration broth method; assay type: cell-based; details: Staphylococcus aureus, MRSA, 24 h
Procedure: as §1, §2, §3

[4] = system: MRSA SA 630; test: MIC, microtitration broth method; assay type: cell-based; details: Staphylococcus aureus, 24 h
Procedure: as §1, §2, §3

[5] = system: Staphylococcus aureus ATCC 29213; test: MIC, microtitration broth method; assay type: cell-based; details: ATCC29213, 24 h
Procedure: as §1, §2, §3

[6] = Lipophilicity determination by RP-HPLC (log k, log D); assay type: physicochemical
Procedure: Lipophilicity was measured by reversed-phase high performance liquid chromatography (RP-HPLC) under isocratic conditions with methanol as the organic modifier in the aqueous mobile phase and the logarithm of the capacity factor k was calculated, which is used as the lipophilicity index converted to the log P scale. In addition to the log k values, the logarithm of the distribution coefficient DpH at pH 6.5 and 7.4 was determined to clarify the behavior of the compounds under physiological conditions and possible ionization. Instead of water, a buffer of suitable pH was used as part of the mobile phase. In addition to the above-mentioned experimental methods, commercially available ChemBioDraw Ultra 13.0 and ACD/Percepta ver. […] In addition to lipophilicity, other parameters discussed in Ro5, such as molecular weight, number of H-bond donors/acceptors, as well as parameters not reported in Ro5, but characterizing the physicochemical properties of the prepared molecules, such as number of rotatable bonds, were predicted using ACD/Percepta. Moreover, for each R substituent, bulkiness expressed as molar volume (MV [cm^3]), a parameter describing the tail length/branching of each carbamates, was calculated.
A HPLC separation module Agilent 1200 Series (Agilent Technologies, Santa Clara, CA, USA) equipped with a Dual Absorbance Detector (DAD SL G1315C, Agilent Technologies) was used. A chromatographic column Symmetry® C18 5 μm, 4.6 × 250 mm, Part No. W21751W016 (Waters Corp, Milford, MA, USA) was used. The HPLC separation process was monitored by ChemStation for LC 3D systems (Agilent Technologies). […] The total flow of the column was 1.0 mL/min, injection 20 μL, column temperature 40 °C, and sample temperature 10 °C. The detection wavelength of 210 nm was chosen. A KI methanolic solution was used for the determination of the dead times (tD). Retention times (tR) were measured in minutes. The capacity factors k were calculated according to the formula k = (tR − tD)/tD, where tR is the retention time of the solute, and tD is the dead time obtained using an unretained analyte. The distribution coefficients DpH were calculated according to the formula DpH = (tR − tD)/tD. Each experiment was repeated three times.

[7] = system: S. aureus and MRSA isolates; test: Antistaphylococcal MIC, summary over strains; assay type: cell-based, Staphylococcus aureus; details: Staphylococcus aureus, read-out: MICs
Procedure: as §1, with “determined. […] MBC values that meet this requirement, i.e., the compound is bactericidal, are indicated in bold in Table 2.” for “determined.”
as §2
The minimum inhibitory concentrations (MICs) were evaluated by the microtitration broth method according to the CLSI [64, 65] with some modifications. […]

[8] = system: Enterococcus faecalis ATCC 29212; test: MIC, microtitration broth method; assay type: cell-based
Procedure: as §2, §3

Compound `CCNC(=O)Oc1c(C(=O)Nc2cc(Cl)c(Cl)cc2Cl)ccc2ccccc12` [Compound 2, 2-[N-(2,4,5-Trichlorophenyl)carbamoyl]naphthalen-1-yl ethyl carbamate] has an IC50 [1] of 2850 ± 170 nM, an MIC [2] of 0.018 µM (≈ 7.88 ng/mL) and an MIC [3] of 0.144 µM (≈ 63 ng/mL). The MIC [4] was 0.018 µM (≈ 7.88 ng/mL), the MIC [5] was 0.018 µM (≈ 7.88 ng/mL) and the “lipophilicity (experimental log k/log D, approximate)” value [6] was “ca. 0.83”. For the same compound, the “log D6.5” value ([6]; RP-HPLC, MeOH 72%/acetate buffered saline pH 6.5) was 0.8294, the “log D7.4” value ([6]; RP-HPLC, MeOH 72%/acetate buffered saline pH 7.4) was 0.8339 and the log k ([6]; RP-HPLC, MeOH 72%/water 28%) was 0.8249. The MIC [7] was 0.018 to 0.064 µM (≈ 7.88 to 28 ng/mL), the “anti-enterococcal activity (in words)” value ([8]; E. faecalis ATCC 29212) was “medium activity” and the MIC ([8]; Enterococcus faecalis, ATCC29212, 24 h) was 36.6 µM (≈ 16000 ng/mL).
